# Experimental data reported in patent US20220033397A1, “PHARMACEUTICAL COMPOUNDS AND THEIR USE AS INHIBITORS OF UBIQUITIN SPECIFIC PROTEASE 19 (USP19)” (ALMAC DISCOVERY LIMITED, priority 2018, published 2022).
# Target: T1, Full-length USP19 (Homo sapiens, UniProt O94966)
# T1 construct: Full-length USP19 was purchased from Boston Biochem (E-576); purchased Boston Biochem E-576
# T1 sequence (O94966 1-1318): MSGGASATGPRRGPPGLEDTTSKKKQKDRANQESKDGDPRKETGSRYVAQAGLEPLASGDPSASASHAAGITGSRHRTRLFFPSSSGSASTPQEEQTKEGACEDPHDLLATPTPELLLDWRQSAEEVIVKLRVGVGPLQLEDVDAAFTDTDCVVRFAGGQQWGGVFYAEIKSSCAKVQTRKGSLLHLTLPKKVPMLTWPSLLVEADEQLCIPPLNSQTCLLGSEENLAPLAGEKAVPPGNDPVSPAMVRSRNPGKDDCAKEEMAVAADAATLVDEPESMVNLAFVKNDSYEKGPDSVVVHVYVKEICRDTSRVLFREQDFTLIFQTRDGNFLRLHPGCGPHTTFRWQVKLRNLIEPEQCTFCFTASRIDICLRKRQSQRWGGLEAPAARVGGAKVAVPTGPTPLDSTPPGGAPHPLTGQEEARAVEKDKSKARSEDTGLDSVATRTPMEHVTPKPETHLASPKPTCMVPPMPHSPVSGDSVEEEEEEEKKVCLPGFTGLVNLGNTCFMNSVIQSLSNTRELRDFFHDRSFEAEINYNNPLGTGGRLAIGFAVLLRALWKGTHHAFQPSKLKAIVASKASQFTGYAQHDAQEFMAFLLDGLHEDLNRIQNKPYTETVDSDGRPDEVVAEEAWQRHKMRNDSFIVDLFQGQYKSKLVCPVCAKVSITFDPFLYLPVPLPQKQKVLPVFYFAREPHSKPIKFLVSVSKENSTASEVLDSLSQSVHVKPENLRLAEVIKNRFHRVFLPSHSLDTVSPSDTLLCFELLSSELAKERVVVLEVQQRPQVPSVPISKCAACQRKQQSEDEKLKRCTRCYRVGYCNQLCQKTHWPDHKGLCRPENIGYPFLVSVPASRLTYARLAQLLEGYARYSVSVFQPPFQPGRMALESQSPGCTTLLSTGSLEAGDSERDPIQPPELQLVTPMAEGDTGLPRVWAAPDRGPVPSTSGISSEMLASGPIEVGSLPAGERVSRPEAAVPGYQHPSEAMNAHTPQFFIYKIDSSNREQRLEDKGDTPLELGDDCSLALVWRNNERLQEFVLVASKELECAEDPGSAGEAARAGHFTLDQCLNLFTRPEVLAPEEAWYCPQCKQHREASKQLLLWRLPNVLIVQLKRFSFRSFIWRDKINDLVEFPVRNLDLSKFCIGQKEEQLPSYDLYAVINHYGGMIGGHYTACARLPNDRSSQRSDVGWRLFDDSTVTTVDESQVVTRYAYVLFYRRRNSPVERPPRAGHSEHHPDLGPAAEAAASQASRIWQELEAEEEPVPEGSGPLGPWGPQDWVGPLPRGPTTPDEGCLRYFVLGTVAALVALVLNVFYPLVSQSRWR
# Test: USP19 fluorescence polarisation (FP) homogeneous assay with Ubiquitin-Lys-TAMRA substrate
# Format: biochemical
# Conditions: 2.5 nM USP19, 30 min pre-incubation, average of at least two duplicate experiments
# Method in brief: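 Full-length USP19 preincubated 30 min at RT with inhibitor (200 μM to 2 μM series, 8–18 points) before adding 500 nM Ubiquitin-Lys-TAMRA substrate.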
row,Compound,IC50
1,"O=C(N1CC[C@@](O)(Cn2cnc(-c3ccccc3F)cc2=O)C2(CCCC2)C1)N1CCNC[C@H]1c1cccc(F)c1 [Example 355, 6-(2-Fluorophenyl)-3-(((S)-7-((R)-2-(3-fluorophenyl)pipera-zine-1-carbonyl)-10-hydroxy-7-aza-spiro[4.5]decan-10-yl)methyl)pyrimidin-4(3H)-one]",< 500 nM
2,"COc1ccccc1-c1cc(=O)n(C[C@]2(O)CCN(C(=O)N3CCNC[C@H]3c3cccc(F)c3)CC23CCCC3)cn1 [Example 356, 3-(((S)-7-((R)-2-(3-Fluorophenyl)pipera-zine-1-carbonyl)-10-hydroxy-7-azaspiro[4.5]decan-10-yl)methyl)-6-(2-methoxyphenyl)pyri-midin-4(3H)-one]",< 500 nM
3,"O=C(N1CC[C@@](O)(Cn2cnc(N3CC(F)(F)C3)cc2=O)C2(CCCC2)C1)N1CCNC[C@H]1c1ccccc1 [Example 357, 6-(3,3-Difluoro-azetidin-1-yl)-3-(((S)-10-hydroxy-7-((R)-2-phenylpiperazine-1-carbonyl)-7-aza-spiro[4.5]decan-10-yl)methyl)pyrimidin-4(3H)-one]",< 500 nM
4,"O=C(N1CC[C@@](O)(Cn2cnc(-c3ccccc3C(F)(F)F)cc2=O)C2(CCCC2)C1)N1CCNC[C@H]1c1ccccc1 [Example 360, 3-(((S)-10-Hydroxy-7-((R)-2-phenylpiperazine-1-carbonyl)-7-azaspiro[4.5]decan-10-yl)methyl)-6-(2-(trifluoromethyl)phe-nyl)pyrimidin-4(3H)-one]",< 500 nM
5,"Cn1nc(C(F)(F)F)cc1-c1ccn(C[C@]2(O)CCN(C(=O)N3CCNC[C@H]3c3ccccc3)CC23CCCC3)c(=O)c1 [Example 362, 1-(((S)-10-Hydroxy-7-((R)-2-phenylpiperazine-1-carbonyl)-7-azaspiro [4.5]decan-10-yl)methyl)-4-(1-methyl-3-(trifluoromethyl)-1H-pyrazol-5-yl)pyri-din-2(1H)-one]",< 500 nM
6,"O=C(N1CC[C@@](O)(Cn2cnc(-c3ccccc3OC3CC3)cc2=O)C2(CCCC2)C1)N1CCNC[C@H]1c1ccccc1 [Example 365, 6-(2-Cyclo-propoxyphenyl)-3-(((S)-10-hydroxy-7-((R)-2-phenylpipera-zine-1-carbonyl)-7-azaspiro[4.5]decan-10-yl)methyl)pyrimi-din-4(3H)-one]",< 500 nM
7,"O=C(N1CC[C@@](O)(Cn2cnc(-c3ccccc3)cc2=O)C2(CCCC2)C1)N1CCNC[C@H]1c1ccc(F)cc1 [Example 369, 3-(((S)-7-((R)-2-(4-Fluorophenyl)pipera-zine-1-carbonyl)-10-hydroxy-7-azaspiro[4.5]decan-10-yl)methyl)-6-phenylpyrimidin-4(3H)-one]",< 500 nM
8,"O=C(N1CC[C@@](O)(Cn2cnc(-c3ccccc3)cc2=O)C2(CCCC2)C1)N1CCNC[C@H]1c1ccccc1F [Example 370, 3-(((10S)-7-(2-(2-Fluorophenyl)pipera-zine-1-carbonyl)-10-hydroxy-7-azaspiro[4.5]decan-10-yl)methyl)-6-phenylpyrimidin-4(3H)-one]",< 500 nM
9,"Cn1ccc(-c2cc(=O)n(C[C@]3(O)CCN(C(=O)N4CCNC[C@H]4c4ccccc4)CC34CCCC4)cn2)n1 [Example 371, 3-(((S)-10-Hydroxy-7-((R)-2-phenylpiperazine-1-carbonyl)-7-aza-spiro[4.5]decan-10-yl)methyl)-6-(1-methyl-1H-pyrazol-3-yl)pyrimidin-4(3H)-one]",< 500 nM
10,"O=C(N1CC[C@@](O)(Cn2cnc(-c3ccccc3)cc2=O)C2(CCCC2)C1)N1CCNC[C@H]1c1cc(F)ccc1F [Example 373, 3-(((S)-7-((R)-2-(2,5-Difluorophenyl)piper-azine-1-carbonyl)-10-hydroxy-7-azaspiro[4.5]decan-10-yl)methyl)-6-phenylpyrimidin-4(3H)-one]",< 500 nM
11,"O=C(N1CCC(O)(Cn2ccc(-c3ccccc3)cc2=O)C2(CCCC2)C1)N1CCNCC1c1cc(F)ccc1F [Example 374, 1-(((S)-7-((R)-2-(2,5-Difluorophenyl)piper-azine-1-carbonyl)-10-hydroxy-7-azaspiro[4.5]decan-10-yl)methyl)-4-phenylpyridin-2(1H)-one]",< 500 nM
12,"O=C(N1CC[C@@](O)(Cn2cnc(-c3cccc(F)c3)cc2=O)C2(CCCC2)C1)N1CCNC[C@H]1c1cccc(F)c1 [Example 375, 6-(3-Fluorophenyl)-3-(((S)-7-((R)-2-(3-fluorophenyl)pipera-zine-1-carbonyl)-10-hydroxy-7-aza-spiro[4.5]decan-10-yl)methyl)pyrimidin-4(3H)-one]",< 500 nM

# More lines, now with the values ahead:
row,IC50,Compound
1,< 500 nM,"O=C(N1CC[C@@](O)(Cn2cnc(-c3ccccc3)cc2=O)C2(CCCC2)C1)N1CCNCC1c1cccs1 (stereo partly drawn) [Example 358, 3-(((10S)-10-Hy-droxy-7-(2-(thio-phen-2-yl)piperazine-1-carbonyl)-7-aza-spiro[4.5]decan-10-yl)methyl)-6-phenylpyrimidin-4(3H)-one]"
2,< 500 nM,"O=C(N1CC[C@@](O)(Cn2cnc(N3CCC(F)(F)C3)cc2=O)C2(CCCC2)C1)N1CCNC[C@H]1c1ccccc1 [Example 359, 6-(3,3-Difluoro-pyrrolidin-1-yl)-3-(((S)-10-hydroxy-7-((R)-2-phenylpiperazine-1-carbonyl)-7-aza-spiro[4.5]decan-10-yl)methyl)pyrimidin-4(3H)-one]"
3,< 500 nM,"O=C(N1CC[C@@](O)(Cn2cnc(N3CCC(F)CC3)cc2=O)C2(CCCC2)C1)N1CCNC[C@H]1c1ccccc1 [Example 361, 6-(4-Fluoropiperidin-1-yl)-3-(((S)-10-hydroxy-7-((R)-2-phenylpiperazine-1-carbonyl)-7-aza-spiro[4.5]decan-10-yl)methyl)pyrimidin-4(3H)-one]"
4,< 500 nM,"O=C(N1CC[C@@](O)(Cn2cnc(N3CCCC(F)(F)C3)cc2=O)C2(CCCC2)C1)N1CCNC[C@H]1c1ccccc1 [Example 363, 6-(3,3-Difluoro-piperidin-1-yl)-3-(((S)-10-hydroxy-7-((R)-2-phenylpiperazine-1-carbonyl)-7-azaspiro[4.5]decan-10-yl)methyl)pyrimi-din-4(3H)-one]"
5,< 500 nM,"O=C(N1CC[C@@](O)(Cn2cnc(-c3ccccc3OC(F)F)cc2=O)C2(CCCC2)C1)N1CCNC[C@H]1c1ccccc1 [Example 364, 6-(2-(Difluoro-methoxy)phenyl)-3-(((S)-10-hydroxy-7-((R)-2-phenylpiperazine-1-carbonyl)-7-aza-spiro[4.5]decan-10-yl)methyl)pyrimidin-4(3H)-one]"
6,< 500 nM,"O=C(N1CC[C@@](O)(Cn2cnc(-c3ccccc3C(F)F)cc2=O)C2(CCCC2)C1)N1CCNC[C@H]1c1ccccc1 [Example 366, 6-(2-(Difluoro-methyl)phenyl)-3-(((S)-10-hydroxy-7-((R)-2-phenylpiperazine-1-carbonyl)-7-aza-spiro[4.5]decan-10-yl)methyl)pyrimidin-4(3H)-one]"
7,< 500 nM,"O=C(N1CC[C@@](O)(Cn2cnc(-c3ccccc3)cc2=O)C2(CCCC2)C1)N1CCNC[C@H]1c1cccc(F)c1F [Example 367, 3-(((S)-7-((R)-2-(2,3-Difluoro-phenyl)piper-azine-1-carbonyl)-10-hydroxy-7-azaspiro[4.5]decan-10-yl)methyl)-6-phenylpyrimidin-4(3H)-one]"
8,< 500 nM,"O=C(N1CC[C@@](O)(Cn2cnc(-c3ccccc3)cc2=O)C2(CCCC2)C1)N1CCNC[C@H]1c1ccc(F)cc1F [Example 368, 3-(((S)-7-((R)-2-(2,4-Difluoro-phenyl)piper-azine-1-carbonyl)-10-hydroxy-7-azaspiro[4.5]decan-10-yl)methyl)-6-phenylpyrimidin-4(3H)-one]"
9,< 500 nM,"O=C1CN(C(=O)N2CC[C@@](O)(Cn3cnc(-c4ccccc4)cc3=O)C3(CCCC3)C2)[C@H](c2ccccc2)CN1 [Example 372, 3-(((S)-10-Hydroxy-7-((R)-5-oxo-2-phenylpiperazine-1-carbonyl)-7-azaspiro[4.5]decan-10-yl)methyl)-6-phenylpyrimidin-4(3H)-one]"
